This assay has as its system human embryonic stem cell line H1. As to the kind of experiment: Dose titration secondary assay: cell number, H1. The assay is classed as cell-based. Conditions: Homo sapiens, Embryonic stem cell, positive control (Wnt3a/Activin A) normalized to 1.000; for activity at 0.156 µM: Conc 0.156 μM; for activity at 0.313 µM: Conc 0.313 μM; for activity at 0.625 µM: Conc 0.625 μM; for activity at 1.25 µM: Conc 1.25 μM; for activity at 2.5 µM: Conc 2.5 μM; for activity at 5 µM: Conc 5 μM; for activity at 10 µM: Conc 10 μM. On the procedure:
It was important to confirm the activity of hits identified from primary screening and further analyze the range of activity by dose titration. New samples of a selective subset of primary screening hits were obtained as dry powders, solubilized to make fresh stock reagents, and diluted into secondary confirmation assays to evaluate effects on human embryonic stem cells.
Culture of two human embryonic stem cells (H1 and H9) was conducted as described in Example 1. Colonies of cells were maintained in an undifferentiated, pluripotent state on Matrigel™ ([…]) coated polystyrene plastic, using a 1:30 dilution of Matrigel™ in DMEM:F12 to coat the surface. Cells were split by enzymatic passage every four days on average. Passage was performed by exposing cell monolayers to a solution of collagenase (1 mg/ml; Sigma-Aldrich) for 10 to 60 minutes at 37° C. followed by gentle scraping with a pipette tip to recover cell clusters. Clusters were allowed to sediment by gravity, then washed to remove residual collagenase. Cell clusters were split at a 1:3 ratio for maintenance culture or a 1:1 ratio for subsequent assay. The human embryonic stem cell lines were maintained at less than passage 50 and routinely evaluated for normal karyotypic phenotype and absence of mycoplasma contamination.
Cell clusters of the H1 or H9 human embryonic stem cell lines used in the assay were evenly resuspended in culture medium and plated onto Matrigel™-coated 96-well Packard VIEWPLATES (PerkinElmer) in volumes of 100 μl/well. MEF conditioned medium supplemented with 8 ng/ml bFGF was used for initial plating and expansion. Daily feeding was conducted by aspirating spent culture medium from each well and replacing with an equal volume of fresh medium. Cultures were allowed to expand one to three days after plating prior to initiating assay. Plates were maintained at 37° C., 5% CO2 in a humidified box for the duration of assay.
A subset of hits resulting from primary screening was used for follow-up study and subsequent secondary assays. Twenty compounds available as dry powders were solubilized as 10 mM stocks in DMSO and stored dessicated at […] until use Immediately prior to assay, compound stocks were diluted 1:1000 to make 10 μM test compound in DMEM:F12 base medium (Invitrogen) supplemented with 0.5% FCS (HyClone) and 100 ng/ml Activin A (R&D Biosystems). This was further diluted two-fold in series to make a seven point dilution curve for each compound, also in DMEM:F12 base medium with 0.5% FCS and 100 ng/ml Activin A.
Assay was initiated by aspirating culture medium from cell monolayers in each well followed by three washes in PBS to remove residual growth factors and serum. Test volumes of 100 μl per well were added back containing medium with 0.5% FCS and different concentrations of inhibitor compounds with 100 ng/ml Activin A, without Wnt3a. Positive control wells contained the same base medium with 0.5% FCS and with 20 ng/ml Wnt3a (R&D Biosystems) in the absence of test compound. Negative control wells contained the same base medium with 0.5% FCS, in the absence of Activin A, Wnt3a, or test compound. Assay wells were aspirated and fed again with identical concentrations of test compound or control solutions on day 2 of assay. On days 3 and 4, all assay wells were aspirated and fed with DMEM:F12 supplemented with 2% FCS and 100 ng/ml Activin A in the absence of both test compound or Wnt3a. Parallel negative control wells were maintained on days 3 and 4 in DMEM:F12 base medium with 2% FCS.
At the end of culture, cells in 96-well plates were washed twice with PBS then fixed with 4% paraformaldehyde at room temperature for 20 minutes, washed three times more with PBS, and then permeabilized with 0.5% Triton X-100 for 20 minutes at room temperature. After fixing and permeabilizing, cells were washed again three times with PBS and then blocked with 4% chicken serum (Invitrogen) in PBS for 30 minutes at room temperature. […]

`O=C1NC(=O)C(c2cn(CCCO)c3ncccc23)=C1c1cnccn1` [Compound 47, 3-[1-(3-Hydroxypropyl)-1H-pyrrolo[2,3-b]pyridin-3-yl]-4-pyrazin-2-yl-1H-pyrrole-2,5-dione]: the activity at 0.156 µM came to 71.2%, the activity at 0.313 µM stood at 74.2%, the activity at 0.625 µM stood at 83.2% and the activity at 1.25 µM was determined as 101%. Also, the activity at 2.5 µM turned out to be 93.2%, the activity at 5 µM came to 110% and the activity at 10 µM is 105%.
As for `O=C1NC(=O)C(c2cn(CCOCCOCCNC3CCCc4ccccc43)c3ccccc23)=C1c1cn(CCNC2CCCc3ccccc32)c2ccccc12` (stereo not drawn) [Compound 144, 3-{1-[2-(1,2,3,4-Tetrahydronaphthalen-1-ylamino)ethyl]-1H-indol-3-yl}-4-(1-{2-[(2-{[2-(1,2,3,4-tetrahydronaphthalen-1-ylamino)ethyl]oxy}ethyl)oxy]ethyl}-1H-indol-3-yl)-1H-pyrrole-2,5-dione], the activity at 0.156 µM is 59.4%, the activity at 0.313 µM is 73.4%, the activity at 0.625 µM stood at 89.5% and the activity at 1.25 µM was 55.2%. Also, the activity at 2.5 µM came to 19.2%, the activity at 5 µM is 0% and the activity at 10 µM is 0%.
As to `O=C1NC(=O)C2=C1Nc1cccc(c1)OCCC/C=C\CCCOc1cccc2c1` [Compound 233, (11Z)-8,9,10,13,14,15-Hexahydro-2,6:17,21-di(metheno)pyrrolo[3,4-h][1,15,7]dioxazacyclotricosine-22,24(1H,23H)-dione], the activity at 0.156 µM was found to be 83.2%, the activity at 0.313 µM stood at 79.1%, the activity at 0.625 µM is 73.6% and the activity at 1.25 µM amounted to 63.6%. Further, the activity at 2.5 µM came to 43.8%, the activity at 5 µM worked out at 8.9% and the activity at 10 µM worked out at 0%.
For `O=C1NC(=O)C(c2nn(CCO)c3ccccc23)=C1c1cn(-c2cncnc2)c2ccccc12` [Compound 226, 3-[1-(2-Hydroxyethyl)-1H-indazol-3-yl]-4-(1-pyrimidin-5-yl-1H-indol-3-yl)-1H-pyrrole-2,5-dione], the activity at 0.156 µM came out at 77.4%, the activity at 0.313 µM is 78.5%, the activity at 0.625 µM came out at 80.5% and the activity at 1.25 µM was 73.9%. The activity at 2.5 µM was 64%, the activity at 5 µM came out at 45.8% and the activity at 10 µM came out at 29%.
Take `COC(=O)c1cncc(-n2cc(C3=C(c4nn(CCO)c5ccccc45)C(=O)NC3=O)c3cc(Cl)ccc32)c1` [Compound 150, Methyl 5-(5-chloro-3-{4-[1-(2-hydroxyethyl)-1H-indazol-3-yl]-2,5-dioxo-2,5-dihydro-1H-pyrrol-3-yl}-1H-indol-1-yl)pyridine-3-carboxylate]: the activity at 0.156 µM worked out at 104%, the activity at 0.313 µM stood at 124%, the activity at 0.625 µM came out at 102% and the activity at 1.25 µM was 121%. Moreover, the activity at 2.5 µM stood at 129%, the activity at 5 µM was 116% and the activity at 10 µM was 5.2%.
On to `O=C1NC(=O)C(c2nn(CCCO)c3ccccc23)=C1c1cn(-c2cccnc2)c2ccc(Cl)cc12` [Compound 52, 3-(5-Chloro-1-pyridin-3-yl-1H-indol-3-yl)-4-[1-(3-hydroxypropyl)-1H-indazol-3-yl]-1H-pyrrole-2,5-dione], for which the activity at 0.156 µM was 82.6%, the activity at 0.313 µM worked out at 103%, the activity at 0.625 µM turned out to be 130% and the activity at 1.25 µM was 145%. In addition, the activity at 2.5 µM turned out to be 110%, the activity at 5 µM was determined as 2.4% and the activity at 10 µM worked out at 0%.
`CC(C)(O)CCn1nc(C2=C(c3cn(-c4cccnc4)c4ccccc34)C(=O)NC2=O)c2ccccc21` [Compound 223, 3-[1-(3-Hydroxy-3-methylbutyl)-1H-indazol-3-yl]-4-(1-pyridin-3-yl-1H-indol-3-yl)-1H-pyrrole-2,5-dione]: the activity at 0.156 µM was found to be 77.6%, the activity at 0.313 µM came to 102%, the activity at 0.625 µM is 103% and the activity at 1.25 µM came out at 116%. Moreover, the activity at 2.5 µM was 132%, the activity at 5 µM is 135% and the activity at 10 µM amounted to 128%.
Take `OCCC#Cc1nc(-c2ccc(F)cc2)c(-c2ccncc2)n1CCCc1ccccc1` [Compound 158, 4-[4-(4-Fluorophenyl)-1-(3-phenylpropyl)-5-pyridin-4-yl-1H-imidazol-2-yl]but-3-yn-1-ol]: the activity at 0.156 µM was determined as 110%, the activity at 0.313 µM was determined as 122%, the activity at 0.625 µM was determined as 123% and the activity at 1.25 µM is 116%. The activity at 2.5 µM is 102%, the activity at 5 µM was found to be 90.5% and the activity at 10 µM came to 5.3%.
For `CN(C)CCCn1c2c(c3ccccc31)C1=C(C(=O)NC1=O)N(c1cccc(Cl)c1)C2` [Compound 101, 4-(3-Chlorophenyl)-6-[3-(dimethylamino)propyl]-5,6-dihydropyrrolo[3′,4′:5,6]pyrido[3,4-b]indole-1,3(2H,4H)-dione], the activity at 0.156 µM stood at 81.2%, the activity at 0.313 µM was 61.7%, the activity at 0.625 µM came to 69.9% and the activity at 1.25 µM was found to be 116%. The activity at 2.5 µM was 100%, the activity at 5 µM came to 76.8% and the activity at 10 µM stood at 49.6%.
For the molecule `CN(C)c1cccc(-n2cc(C3=C(c4nn(CCO)c5ccccc45)C(=O)NC3=O)c3ccccc32)c1` [Compound 145, 3-{1-[3-(Dimethylamino)phenyl]-1H-indol-3-yl}-4-[1-(2-hydroxyethyl)-1H-indazol-3-yl]-1H-pyrrole-2,5-dione], the activity at 0.156 µM was determined as 46.9%, the activity at 0.313 µM worked out at 66.5%, the activity at 0.625 µM turned out to be 71.3% and the activity at 1.25 µM worked out at 128%. In addition, the activity at 2.5 µM is 135%, the activity at 5 µM amounted to 33.9% and the activity at 10 µM was 2.1%.
Consider `CN(CCO)CCCn1nc(C2=C(c3cn(-c4cccnc4)c4ccccc34)C(=O)NC2=O)c2ccccc21` [Compound 198, 3-(1-{3-[(2-Hydroxyethyl)(methyl)amino]propyl}-1H-indazol-3-yl)-4-(1-pyridin-3-yl-1H-indol-3-yl)-1H-pyrrole-2,5-dione], for which the activity at 0.156 µM was found to be 82.2%, the activity at 0.313 µM was 75.4%, the activity at 0.625 µM was determined as 74.2% and the activity at 1.25 µM was 89.9%. Besides, the activity at 2.5 µM was 103%, the activity at 5 µM was 106% and the activity at 10 µM came out at 101%.
As to `Cc1c[nH]c(-c2cnc(NCCNc3ccc(C#N)cn3)nc2-c2ccc(Cl)cc2Cl)n1` [Compound 221, 6-[(2-{[4-(2,4-Dichlorophenyl)-5-(4-methyl-1H-imidazol-2-yl)pyrimidin-2-yl]amino}ethyl)amino]pyridine-3-carbonitrile], the activity at 0.156 µM is 108%, the activity at 0.313 µM is 113%, the activity at 0.625 µM is 111% and the activity at 1.25 µM amounted to 112%. Besides, the activity at 2.5 µM amounted to 89.6%, the activity at 5 µM turned out to be 88.9% and the activity at 10 µM was found to be 19.3%.

For the origin of these results see patent publication US20130337564A1, “Treatment of Pluripotent Cells” (Janssen Biotech, Inc., priority 2012, published 2013).
